Series [1] has as its system CNCCc1c[nH]c2cccc(OP(=O)(O)O)c12. Briefly: UHPLC-MS methyltransferase assay, Michaelis-Menten. The series is classed as biochemical, Psilocybe cubensis. The settings on record: 1 mM SAM, 50 mM Tris pH 8.4, 28 °C, second methyl transfer.
Series [2] addresses T1, PsiM (Psilocybe cubensis, UniProt P0DPA9).
T1 construct: full length, E. coli; Crystals: pJF45, His6 cut off by thrombin, vector-derived TEV site kept at N-terminus; Wild-type ITC and activity: His6-tagged without thrombin/TEV sites (pFB13); N247M: made from pJF45 template in pET-28a
Briefly: isothermal titration calorimetry. Format: binding. (In ITC the heat of successive injections is recorded.)

The target of series [3] is T1, PsiM. Put plainly: UHPLC-MS methyltransferase assay, Michaelis-Menten. Format: biochemical. The settings on record: 1 mM SAM, 50 mM Tris pH 8.4, 28 °C; first methyl transfer.

As a reminder, the Km is the substrate concentration at which the rate is half of its maximum. As a reminder, the kcat is the number of substrate molecules converted per active site and unit of time at saturation. Consider PsiM (Psilocybe cubensis), for which, in series [1], the Km was 492 ± 154 µM and the catalytic constant (kcat) came out at 0.001 ± 0.00017 s⁻¹.
Broadly, the Kd is a measure of binding affinity in units of concentration. Read a high Kd as weaker binding. For `CNCCc1c[nH]c2cccc(OP(=O)(O)O)c12` [baeocystin], the affinity at PsiM [2], expressed as Kd, was 77.2 ± 3.5 µM.
As for `Nc1ncnc2c1ncn2[C@@H]1O[C@H](CSCC[C@H](N)C(=O)O)[C@@H](O)[C@H]1O` [SAH], the Kd at PsiM [2] was found to be 66 ± 49 µM.
Regarding `NCCc1c[nH]c2cccc(OP(=O)(O)O)c12` [norbaeocystin], at PsiM [3], the Km was determined as 575 ± 100 µM. Further, on PsiM [2], the dissociation constant Kd turned out to be 35.7 ± 5.4 µM.
